Measurements taken from patent US20110039721A1, “METHOD FOR PREDICTION ABOUT CARCINOGENICITY OF SUBSTANCE IN RODENT” (Chemicals Evaluation and Research Institute, priority 2007, published 2011).

Legend:
[1] = system: mRNA expressed from the genes (A) to (D) in rat liver; assay: Behavior of genes (mRNA expression level, oligo-DNA microarray) in rat liver after 28-day oral administration; assay type: in vivo; settings: mRNA vs vehicle control group
Procedure, shortened: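 Rat liver RNA after 28 days of daily gavage dosing (male F344, 5 weeks old, four per group). A change reaching 1.5-fold, or 1/1.5, against solvent control scores as significant; opposite direction versus another carcinogen scores as not significant.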

[2] = system: liver; settings: in vivo; cited from earlier work
[3] = system: rodent; settings: in vivo; cited from earlier work
[4] = gene group (A), Unigene No. Rn.167075
[5] = gene group (C), Unigene No. Rn.120914

c1ccc2cc3c(ccc4ccccc43)cc2c1 [TS046, Benz[a]anthracene]
−: Behavior of gene caused by administration of chemical substance, Gene No. 4846 ([1]; gene group (A), Unigene No. Rn.144554) | Behavior of gene caused by administration of chemical substance, Gene No. 4218 [1, 4] | Behavior of gene caused by administration of chemical substance, Gene No. 5600 ([1]; gene group (A), Unigene No. Rn.9836) | Behavior of gene caused by administration of chemical substance, Gene No. 1494 ([1]; gene group (B), Unigene No. Rn.1430) | Behavior of gene caused by administration of chemical substance, Gene No. 2045 ([1]; gene group (B), Unigene No. Rn.19329) | Behavior of gene caused by administration of chemical substance, Gene No. 533 ([1]; gene group (C), Unigene No. Rn.106184) | Behavior of gene caused by administration of chemical substance, Gene No. 1334 [1, 5] | Behavior of gene caused by administration of chemical substance, Gene No. 6620 [1, 5] | Behavior of gene caused by administration of chemical substance, Gene No. 6303 ([1]; gene group (C), Unigene No. Rn.123063) | Behavior of gene caused by administration of chemical substance, Gene No. 1562 ([1]; gene group (C), Unigene No. Rn.14744) | Behavior of gene caused by administration of chemical substance, Gene No. 6026 ([1]; gene group (C), Unigene No. Rn.167685) | Behavior of gene caused by administration of chemical substance, Gene No. 2494 ([1]; gene group (C), Unigene No. Rn.23969) | Behavior of gene caused by administration of chemical substance, Gene No. 3929 ([1]; gene group (C), Unigene No. Rn.4620)
C+: Carcinogenicity [3]
Cr−: Liver carcinogenicity [2]
+: Behavior of gene caused by administration of chemical substance, Gene No. 2026 [1, 4] | Behavior of gene caused by administration of chemical substance, Gene No. 6182 ([1]; gene group (A), Unigene No. Rn.5834) | Behavior of gene caused by administration of chemical substance, Gene No. 2203 ([1]; gene group (B), Unigene No. Rn.21240) | Behavior of gene caused by administration of chemical substance, Gene No. 725 ([1]; gene group (C), Unigene No. Rn.108075) | Behavior of gene caused by administration of chemical substance, Gene No. 1163 ([1]; gene group (C), Unigene No. Rn.11766) | Behavior of gene caused by administration of chemical substance, Gene No. 4973 ([1]; gene group (C), Unigene No. Rn.118529) | Behavior of gene caused by administration of chemical substance, Gene No. 4095 ([1]; gene group (C), Unigene No. Rn.119024) | Behavior of gene caused by administration of chemical substance, Gene No. 5878 ([1]; gene group (C), Unigene No. Rn.143213) | Behavior of gene caused by administration of chemical substance, Gene No. 1131 ([1]; gene group (C), Unigene No. Rn.144946) | Behavior of gene caused by administration of chemical substance, Gene No. 1741 ([1]; gene group (C), Unigene No. Rn.1647) | Behavior of gene caused by administration of chemical substance, Gene No. 893 ([1]; gene group (C), Unigene No. Rn.164817) | Behavior of gene caused by administration of chemical substance, Gene No. 154 ([1]; gene group (C), Unigene No. Rn.185941) | Behavior of gene caused by administration of chemical substance, Gene No. 1993 ([1]; gene group (C), Unigene No. Rn.18728) | Behavior of gene caused by administration of chemical substance, Gene No. 813 ([1]; gene group (C), Unigene No. Rn.201760) | Behavior of gene caused by administration of chemical substance, Gene No. 2546 ([1]; gene group (C), Unigene No. Rn.24561) | Behavior of gene caused by administration of chemical substance, Gene No. 3776 ([1]; gene group (C), Unigene No. Rn.43232) | Behavior of gene caused by administration of chemical substance, Gene No. 1119 ([1]; gene group (C), Unigene No. Rn.9757) | Behavior of gene caused by administration of chemical substance, Gene No. 6742 ([1]; gene group (C), Unigene No. Rn.9779) | Behavior of gene caused by administration of chemical substance, Gene No. 5634 ([1]; gene group (C), Unigene No. Rn.9862) | Behavior of gene caused by administration of chemical substance, Gene No. 5726 ([1]; gene group (D), Unigene No. Rn.9939)
